Laboratory results taken from patent publication US20240368159A1, “HPK1 DEGRADERS, COMPOSITIONS COMPRISING THE HPK1 DEGRADER, AND METHODS OF USING THE SAME” (BIOFRONT LTD, priority 2021, published 2024).

Tests used:
[1] = molecular target: T1, HPK1 protein (Homo sapiens, UniProt Q92918); test: HPK1 enzyme inhibition assay (ADP-Glo); assay type: biochemical; conditions: MBP substrate, ATP, ADP-Glo readout
T1 construct: purchased Signal Chem M23-11G-10
T1 sequence (Q92918 1-346 limits assumed): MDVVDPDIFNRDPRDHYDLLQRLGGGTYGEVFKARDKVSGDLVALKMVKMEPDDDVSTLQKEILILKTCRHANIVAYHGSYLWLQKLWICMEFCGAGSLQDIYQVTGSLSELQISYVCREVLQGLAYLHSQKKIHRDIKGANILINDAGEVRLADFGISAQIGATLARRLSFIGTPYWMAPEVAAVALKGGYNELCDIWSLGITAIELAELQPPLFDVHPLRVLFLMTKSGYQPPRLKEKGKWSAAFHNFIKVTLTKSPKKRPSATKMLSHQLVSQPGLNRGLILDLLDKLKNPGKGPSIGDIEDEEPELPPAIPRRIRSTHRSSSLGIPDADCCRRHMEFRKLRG
Outline: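 Recombinant human HPK1 preincubated with compound 60 min at 25 °C, then reaction with MBP (0.2 ug/ul, 2× stock) and ATP (20 μM, 2× stock) 60 min at 25 °C. ADP formed detected by ADP-Glo after ATP depletion and conversion to ATP; IC50 calculated from signal.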

[2] = tested on: IL-2 production in primary mouse CD3+ T cells; test: Cytokine measurement: IL-2 production in mouse CD3+ T cells (ELISA); assay type: cell-based; conditions: T-cell, plate bound anti-CD3, 40 hrs; for fold induction at 1 µM: 1 uM compound, read-out: IL-2 production Fold change (1 uM); for fold induction at 3 µM: 3 uM compound, read-out: IL-2 production Fold change (3 uM)
Experimental: Anti-CD3 Ab was used to provide signal 1 to stimulate mouse CD3+ T cells. Effect of compound stimulation on T cells was measure by IL2 ELISA. Briefly, anti-CD3 Ab was coated onto plates overnight. Isolated T cells from mouse splenocytes were incubated with plate bound CD3 in the presence and absence of compound for 40 hrs. After incubation, the supernatant was collected and IL2 level in the supernatant was determined by mouse IL2 ELISA kit.

[3] = tested on: HPK1 p-SLP-76; test: HPK1 p-SLP-76 inhibition assay in human PBMC (HTRF); assay type: cell-based; conditions: 6 h compound, anti-CD3 stimulation 20 min
Outline: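 Human PBMC starved overnight in 0.5% FBS, treated with compound 6 h at 37° C, then stimulated with anti-CD3 (10 ug/mL final) for 20 min. Lysates analysed for phospho-SLP76 by HTRF after overnight detection-antibody incubation at 25° C.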

[4] = molecular target: T2, HPK1 protein (Homo sapiens, UniProt Q92918); test: HPK1 protein degradation in human PBMC (western blot); assay type: cell-based; conditions: 18 h incubation
T2 construct: Frozen human PBMC were purchased from Shanghai OribioTech; host or cells: human PBMC
Experimental: HPK1 protein degradation in human PBMC: Frozen human PBMC were purchased from Shanghai OribioTech and recovered with culture medium (RMPI1640) prior to use. The cells were then incubated with a variety of concentrations of compound. After incubation for 18 h, the cells were collected and lysed. The protein concentration was determined by BCA protein assay kit from Thermo (23227). The HPK1 protein level was determined by western blots, using anti-human HPK1 polyclonal antibody from CST (4472S). Proteins were loaded into each well of the pre-casting gels and subjected to electrophoretic separation by SDS-PAGE. The protein resolved by SDS-PAGE were transferred to PVDF, blocked by 5% skim milk, and probed with anti-human HPK1 antibody or β-actin antibody from CST (3700S), using standard western blotting procedure.
T2 sequence (Q92918 whole entry): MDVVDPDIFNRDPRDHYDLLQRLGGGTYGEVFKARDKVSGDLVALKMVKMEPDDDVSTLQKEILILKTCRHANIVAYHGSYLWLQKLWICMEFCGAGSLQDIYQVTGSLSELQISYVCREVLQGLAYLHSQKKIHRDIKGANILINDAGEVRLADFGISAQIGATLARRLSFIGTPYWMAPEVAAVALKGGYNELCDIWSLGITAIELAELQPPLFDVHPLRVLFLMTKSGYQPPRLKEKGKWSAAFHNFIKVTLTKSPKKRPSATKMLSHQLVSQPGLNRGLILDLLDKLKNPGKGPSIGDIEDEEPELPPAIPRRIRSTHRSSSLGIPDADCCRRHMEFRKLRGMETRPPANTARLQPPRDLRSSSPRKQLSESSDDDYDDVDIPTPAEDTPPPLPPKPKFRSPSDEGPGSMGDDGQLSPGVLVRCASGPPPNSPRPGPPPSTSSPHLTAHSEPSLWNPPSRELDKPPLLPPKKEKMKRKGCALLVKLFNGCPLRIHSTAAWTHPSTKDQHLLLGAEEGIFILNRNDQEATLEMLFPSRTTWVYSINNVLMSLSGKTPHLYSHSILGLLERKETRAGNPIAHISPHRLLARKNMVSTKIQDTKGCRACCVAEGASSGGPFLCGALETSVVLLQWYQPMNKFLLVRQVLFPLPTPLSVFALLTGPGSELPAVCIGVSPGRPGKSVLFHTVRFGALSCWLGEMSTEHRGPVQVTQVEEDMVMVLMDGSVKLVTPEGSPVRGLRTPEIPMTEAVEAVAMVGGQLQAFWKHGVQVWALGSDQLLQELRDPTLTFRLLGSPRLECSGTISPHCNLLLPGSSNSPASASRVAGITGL

[5] = molecular target: T3, HPK1 protein (Mus musculus, UniProt P70218); test: HPK1 protein degradation in mouse pan T cell (western blot); assay type: cell-based; conditions: 18 h incubation
T3 construct: the CD3+ T cell population was isolated from spleenocytes of mice; endogenous in cells; host or cells: primary mouse splenic CD3+ (pan) T cells
T3 sequence (P70218 1-827): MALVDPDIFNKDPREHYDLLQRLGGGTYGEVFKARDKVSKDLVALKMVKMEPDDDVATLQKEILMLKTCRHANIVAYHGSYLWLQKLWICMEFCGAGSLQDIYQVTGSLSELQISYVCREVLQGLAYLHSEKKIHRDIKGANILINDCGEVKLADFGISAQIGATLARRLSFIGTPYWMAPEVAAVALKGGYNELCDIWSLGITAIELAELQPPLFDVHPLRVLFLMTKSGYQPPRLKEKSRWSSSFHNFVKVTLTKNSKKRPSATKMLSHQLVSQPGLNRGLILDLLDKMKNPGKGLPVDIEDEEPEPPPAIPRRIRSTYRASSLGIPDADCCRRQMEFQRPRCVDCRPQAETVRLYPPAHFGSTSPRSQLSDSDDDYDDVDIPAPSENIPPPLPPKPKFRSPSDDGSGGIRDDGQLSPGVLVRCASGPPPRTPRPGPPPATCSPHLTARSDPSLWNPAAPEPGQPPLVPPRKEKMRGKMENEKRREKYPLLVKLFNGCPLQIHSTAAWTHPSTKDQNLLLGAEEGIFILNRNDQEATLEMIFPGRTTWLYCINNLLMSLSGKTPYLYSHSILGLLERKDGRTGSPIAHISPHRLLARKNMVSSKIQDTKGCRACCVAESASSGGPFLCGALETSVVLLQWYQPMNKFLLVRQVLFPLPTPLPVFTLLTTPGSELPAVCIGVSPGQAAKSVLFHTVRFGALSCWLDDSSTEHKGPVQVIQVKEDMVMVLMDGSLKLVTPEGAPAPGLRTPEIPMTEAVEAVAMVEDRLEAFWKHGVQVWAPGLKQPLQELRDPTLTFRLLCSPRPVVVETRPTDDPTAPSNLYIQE
Outline: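 CD3+ pan T cells were isolated from mouse splenocytes and incubated 18 h with a range of compound concentrations. Lysates were normalised by BCA and run on SDS-PAGE. HPK1 was detected by western blot with an anti-human HPK1 polyclonal antibody, with β-actin as loading control.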

SMILES	IC50 [1]	IC50 [3]	Dmax [4]	Dmax [5]	fold induction at 1 µM [2]	fold induction at 3 µM [2]
O=C1CCC(N2Cc3cc(C4CCN(CCCN5CCN(c6cccc(-c7cnc8[nH]cc(C9CC9)c8c7Cl)c6)C(=O)C5)CC4)ccc3C2=O)C(=O)N1 (stereo not shown) [Example 54, 3-(5-(1-(3-(4-(3-(4-chloro-3-cyclopropyl-1H-pyrrolo[2,3-b]pyridin-5-yl)phenyl)-3-oxopiperazin-1-yl)propyl)piperidin-4-yl)-1-oxoisoindolin-2-yl)piperidine-2,6-dione]	≤ 0.01 µM	≤ 0.3 µM	83%	95%		
CCc1c[nH]c2ncc(-c3cccc(N4CCN(CCCOC5CCN(c6ccc7c(c6)C(=O)N(C6CCC(=O)NC6=O)C7=O)CC5)CC4=O)c3)c(Cl)c12 (stereo not shown) [Example 35, 5-(4-(3-(4-(3-(4-chloro-3-ethyl-1H-pyrrolo[2,3-b]pyridin-5-yl)phenyl)-3-oxopiperazin-1-yl)propoxy)piperidin-1-yl)-2-(2,6-dioxopiperidin-3-yl)isoindoline-1,3-dione]	0.01 to 0.1 µM	0.3 to 3 µM	90%	95%		
O=C1CCC(N2C(=O)c3ccc(OCCC4CN(C(=O)N5CCN(c6cccc(-c7cnc8[nH]cc(C9CC9)c8c7Cl)c6)C(=O)C5)C4)cc3C2=O)C(=O)N1 (stereo not shown) [Example 95, 5-(2-(1-(4-(3-(4-chloro-3-cyclopropyl-1H-pyrrolo[2,3-b]pyridin-5-yl)phenyl)-3-oxopiperazine-1-carbonyl)azetidin-3-yl)ethoxy)-2-(2,6-dioxopiperidin-3-yl)isoindoline-1,3-dione]	0.01 to 0.1 µM				1.8	2.7
O=C1CCC(c2ccc(C3CCN(CCCS(=O)(=O)N4CCN(c5cccc(-c6cnc7[nH]cc(C8CC8)c7c6Cl)c5)C(=O)C4)CC3)cc2)C(=O)N1 (stereo not shown) [Example 102, 3-(4-(1-(3-((4-(3-(4-chloro-3-cyclopropyl-1H-pyrrolo[2,3-b]pyridin-5-yl)phenyl)-3-oxopiperazin-1-yl)sulfonyl)propyl)piperidin-4-yl)phenyl)piperidine-2,6-dione]	≤ 0.01 µM	0.3 to 3 µM			2.9	2.6
CCc1c[nH]c2ncc(-c3cccc(N4CCN(C(=O)COC5CCN(c6ccc7c(c6)C(=O)N(C6CCC(=O)NC6=O)C7=O)CC5)CC4=O)c3)c(Cl)c12 (stereo not shown) [Example 16, 5-(4-(2-(4-(3-(4-chloro-3-ethyl-1H-pyrrolo[2,3-b]pyridin-5-yl)phenyl)-3-oxopiperazin-1-yl)-2-oxoethoxy)piperidin-1-yl)-2-(2,6-dioxopiperidin-3-yl)isoindoline-1,3-dione]	≤ 0.01 µM	≤ 0.3 µM	96%	80%		
O=C1CCC(Nc2ccc(C3CCN(CCCN4CCN(c5cccc(-c6cnc7[nH]cc(C8CC8)c7c6Cl)c5)C(=O)C4)CC3)cc2)C(=O)N1 (stereo not shown) [Example 78, 3-((4-(1-(3-(4-(3-(4-chloro-3-cyclopropyl-1H-pyrrolo[2,3-b]pyridin-5-yl)phenyl)-3-oxopiperazin-1-yl)propyl)piperidin-4-yl)phenyl)amino)piperidine-2,6-dione]	≤ 0.01 µM	0.3 to 3 µM	90%	88%		

Second part, led by results:

IC50 [1]	IC50 [3]	Dmax [4]	Dmax [5]	SMILES	fold induction at 1 µM [2]	fold induction at 3 µM [2]
0.01 to 0.1 µM	> 10 µM			O=C1CCC(N2C(=O)c3ccc(N4CCC(COC(=O)N5CCN(c6cccc(-c7cnc8[nH]cc(C9CC9)c8c7Cl)c6)C(=O)C5)CC4)cc3C2=O)C(=O)N1 (stereo not shown) [Example 88]	2.3	2.4
0.01 to 0.1 µM	≤ 0.3 µM	99%	90%	CCc1c[nH]c2ncc(-c3cccc(N4CCN(S(=O)(=O)CCCN5CCN(c6ccc7c(c6)C(=O)N(C6CCC(=O)NC6=O)C7=O)CC5)CC4=O)c3)c(Cl)c12 (stereo not shown) [Example 99, 5-(4-(3-((4-(3-(4-chloro-3-ethyl-1H-pyrrolo[2,3-b]pyridin-5-yl)phenyl)-3-oxopiperazin-1-yl)sulfonyl)propyl)piperazin-1-yl)-2-(2,6-dioxopiperidin-3-yl)isoindoline-1,3-dione]		
≤ 0.01 µM	≤ 0.3 µM			O=C1CCC(N2Cc3cc(N4CCN(CCCS(=O)(=O)N5CCN(c6cccc(-c7cnc8[nH]cc(C9CC9)c8c7Cl)c6)C(=O)C5)CC4)ccc3C2=O)C(=O)N1 (stereo not shown) [Example 103, 3-(5-(4-(3-((4-(3-(4-chloro-3-cyclopropyl-1H-pyrrolo[2,3-b]pyridin-5-yl)phenyl)-3-oxopiperazin-1-yl)sulfonyl)propyl)piperazin-1-yl)-1-oxoisoindolin-2-yl)piperidine-2,6-dione]	2.1	2.8
≤ 0.01 µM	≤ 0.3 µM		97%	O=C1CCC(Nc2ccc(N3CCN(CCCN4CCN(c5cccc(-c6cnc7[nH]cc(C8CC8)c7c6Cl)c5)C(=O)C4)CC3)c(F)c2)C(=O)N1 (stereo not shown) [Example 79, 3-((4-(4-(3-(4-(3-(4-chloro-3-cyclopropyl-1H-pyrrolo[2,3-b]pyridin-5-yl)phenyl)-3-oxopiperazin-1-yl)propyl)piperazin-1-yl)-3-fluorophenyl)amino) piperidine-2,6-dione]	2.6	< 0.5
0.1 to 1 µM	0.3 to 3 µM	94%	95%	O=C1CCC(N2C(=O)c3cc(F)c(N4CCN(CCCN5CCN(c6cccc(-c7cnc8[nH]cc(C9CC9)c8c7Cl)c6)C(=O)C5)CC4)cc3C2=O)C(=O)N1 (stereo not shown) [Example 43]		
0.01 to 0.1 µM	0.3 to 3 µM	96%	96%	CCc1c[nH]c2ncc(-c3cccc(N4CCN(CCCN5CCN(c6cc7c(cc6F)C(=O)N(C6CCC(=O)NC6=O)C7=O)CC5)CC4=O)c3)c(Cl)c12 (stereo not shown) [Example 25]		
≤ 0.01 µM	0.3 to 3 µM	98%	95%	O=C1CCC(N2Cc3cc(C4=CCN(CCCN5CCN(c6cccc(-c7cnc8[nH]cc(C9CC9)c8c7Cl)c6)C(=O)C5)CC4)ccc3C2=O)C(=O)N1 (stereo not shown) [Example 56, 3-(5-(1-(3-(4-(3-(4-chloro-3-cyclopropyl-1H-pyrrolo[2,3-b]pyridin-5-yl)phenyl)-3-oxopiperazin-1-yl)propyl)-1,2,3,6-tetrahydropyridin-4-yl)-1-oxoisoindolin-2-yl)piperidine-2,6-dione]		
